Assay results taken from US7118895B2, “Process for producing aglycon by using diglycosidase and flavor-improved food containing the aglycon and converting agent to be used in the process” (Amano Enzyme Inc., priority 2000, dated 2006).

System: Crude diglycosidase
Experiment: Examination of temperature in the conversion into isoflavone aglycons by diglycosidase using soybean materials
Assay type: biochemical, Penicillium multicolor IAM7153
Parameters: Decomposition efficiency of glycitin family in roasted soy flour / Decomposition efficiency of daidzin family in roasted soy flour / Decomposition efficiency of genistin family in soymilk / Decomposition efficiency of daidzin family in soymilk / Decomposition efficiency of glycitin family in defatted soybean / Decomposition efficiency of daidzin family in defatted soybean: concentration or dose not given beside the values
Conditions: for maximum isolation of aglycons: reaction at 55° C. for 6 hours
Method in brief: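 Temperature series (30-80° C.) of crude diglycosidase, diluted to 1.88 AU/mL in 20 mM acetate pH 4.0, acting on roasted soy flour, soymilk, defatted soybean or soy protein concentrate. Samples quenched with ethanol after 0-6 h, centrifuged, filtered and analyzed by HPLC for glycosides versus aglycons.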

[1] = 30° C., heat treatment of enzyme no, reaction time 0 h
[2] = 30° C., heat treatment of enzyme no, reaction time 1 h
[3] = 30° C., heat treatment of enzyme no, reaction time 3 h
[4] = 30° C., heat treatment of enzyme no, reaction time 6 h
[5] = 30° C., heat treatment of enzyme yes, reaction time 6 h
[6] = 30 °C, heat treatment of enzyme: no, 0 h
[7] = 30 °C, heat treatment of enzyme: no, 1 h
[8] = 30 °C, heat treatment of enzyme: no, 3 h
[9] = 30 °C, heat treatment of enzyme: no, 6 h
[10] = 30 °C, heat treatment of enzyme: yes, 6 h
[11] = 45° C., heat treatment of enzyme no, reaction time 0 h
[12] = 45° C., heat treatment of enzyme no, reaction time 1 h
[13] = 45° C., heat treatment of enzyme no, reaction time 3 h
[14] = 45° C., heat treatment of enzyme no, reaction time 6 h
[15] = 45° C., heat treatment of enzyme yes, reaction time 6 h
[16] = 45 °C, heat treatment of enzyme: no, 0 h
[17] = 45 °C, heat treatment of enzyme: no, 1 h
[18] = 45 °C, heat treatment of enzyme: no, 3 h
[19] = 45 °C, heat treatment of enzyme: no, 6 h
[20] = 45 °C, heat treatment of enzyme: yes, 6 h
[21] = 55° C., heat treatment of enzyme no, reaction time 0 h
[22] = 55° C., heat treatment of enzyme no, reaction time 1 h
[23] = 55° C., heat treatment of enzyme no, reaction time 3 h
[24] = 55° C., heat treatment of enzyme no, reaction time 6 h
[25] = 55° C., heat treatment of enzyme yes, reaction time 6 h
[26] = 55 °C, heat treatment of enzyme: no, 0 h
[27] = 55 °C, heat treatment of enzyme: no, 1 h
[28] = 55 °C, heat treatment of enzyme: no, 3 h
[29] = 55 °C, heat treatment of enzyme: no, 6 h
[30] = 55 °C, heat treatment of enzyme: yes, 6 h
[31] = 65° C., heat treatment of enzyme no, reaction time 0 h
[32] = 65° C., heat treatment of enzyme no, reaction time 1 h
[33] = 65° C., heat treatment of enzyme no, reaction time 3 h
[34] = 65° C., heat treatment of enzyme no, reaction time 6 h
[35] = 65° C., heat treatment of enzyme yes, reaction time 6 h
[36] = 65 °C, heat treatment of enzyme: no, 0 h
[37] = 65 °C, heat treatment of enzyme: no, 1 h
[38] = 65 °C, heat treatment of enzyme: no, 3 h
[39] = 65 °C, heat treatment of enzyme: no, 6 h
[40] = 65 °C, heat treatment of enzyme: yes, 6 h
[41] = 80° C., heat treatment of enzyme no, reaction time 0 h
[42] = 80° C., heat treatment of enzyme no, reaction time 1 h
[43] = 80° C., heat treatment of enzyme no, reaction time 3 h
[44] = 80° C., heat treatment of enzyme no, reaction time 6 h
[45] = 80° C., heat treatment of enzyme yes, reaction time 6 h
[46] = 80 °C, heat treatment of enzyme: no, 0 h
[47] = 80 °C, heat treatment of enzyme: no, 1 h
[48] = 80 °C, heat treatment of enzyme: no, 3 h
[49] = 80 °C, heat treatment of enzyme: no, 6 h
[50] = 80 °C, heat treatment of enzyme: yes, 6 h

SMILES: O=C(O)CC(=O)OC[C@H]1O[C@@H](Oc2cc(O)c3c(=O)c(-c4ccc(O)cc4)coc3c2)[C@H](O)[C@@H](O)[C@@H]1O [malonylgenistin, 6″-O-malonylgenistin]
- Decomposition efficiency of genistin family in concentrated soybean protein [1]: not detected
- Decomposition efficiency of genistin family in defatted soybean [1]: 47.0%
- Decomposition efficiency of genistin family in concentrated soybean protein [2]: not detected
- Decomposition efficiency of genistin family in defatted soybean [2]: 51.3%
- Decomposition efficiency of genistin family in concentrated soybean protein [3]: not detected
- Decomposition efficiency of genistin family in defatted soybean [3]: 49.1%
- Decomposition efficiency of genistin family in concentrated soybean protein [4]: not detected
- Decomposition efficiency of genistin family in defatted soybean [4]: 45.6%
- Decomposition efficiency of genistin family in concentrated soybean protein [5]: not detected
- Decomposition efficiency of genistin family in defatted soybean [5]: 49.5%
- Decomposition efficiency of genistin family in roasted soy flour [6]: not detected
- Decomposition efficiency of genistin family in soymilk [6]: 58.5%
- Decomposition efficiency of genistin family in roasted soy flour [7]: not detected
- Decomposition efficiency of genistin family in soymilk [7]: 56.5%
- Decomposition efficiency of genistin family in roasted soy flour [8]: not detected
- Decomposition efficiency of genistin family in soymilk [8]: 47.9%
- Decomposition efficiency of genistin family in roasted soy flour [9]: not detected
- Decomposition efficiency of genistin family in soymilk [9]: 36.1%
- Decomposition efficiency of genistin family in roasted soy flour [10]: not detected
- Decomposition efficiency of genistin family in soymilk [10]: 57.7%
- Decomposition efficiency of genistin family in concentrated soybean protein [11]: not detected
- Decomposition efficiency of genistin family in defatted soybean [11]: 47.0%
- Decomposition efficiency of genistin family in concentrated soybean protein [12]: not detected
- Decomposition efficiency of genistin family in defatted soybean [12]: 49.0%
- Decomposition efficiency of genistin family in concentrated soybean protein [13]: not detected
- Decomposition efficiency of genistin family in defatted soybean [13]: 46.8%
- Decomposition efficiency of genistin family in concentrated soybean protein [14]: not detected
- Decomposition efficiency of genistin family in defatted soybean [14]: 44.2%
- Decomposition efficiency of genistin family in concentrated soybean protein [15]: not detected
- Decomposition efficiency of genistin family in defatted soybean [15]: 48.1%
- Decomposition efficiency of genistin family in roasted soy flour [16]: not detected
- Decomposition efficiency of genistin family in soymilk [16]: 57.8%
- Decomposition efficiency of genistin family in roasted soy flour [17]: not detected
- Decomposition efficiency of genistin family in soymilk [17]: 49.4%
- Decomposition efficiency of genistin family in roasted soy flour [18]: not detected
- Decomposition efficiency of genistin family in soymilk [18]: 34.7%
- Decomposition efficiency of genistin family in roasted soy flour [19]: not detected
- Decomposition efficiency of genistin family in soymilk [19]: 20.7%
- Decomposition efficiency of genistin family in roasted soy flour [20]: not detected
- Decomposition efficiency of genistin family in soymilk [20]: 57.2%
- Decomposition efficiency of genistin family in concentrated soybean protein [21]: not detected
- Decomposition efficiency of genistin family in defatted soybean [21]: 47.0%
- Decomposition efficiency of genistin family in concentrated soybean protein [22]: not detected
- Decomposition efficiency of genistin family in defatted soybean [22]: 48.8%
- Decomposition efficiency of genistin family in concentrated soybean protein [23]: not detected
- Decomposition efficiency of genistin family in defatted soybean [23]: 46.1%
- Decomposition efficiency of genistin family in concentrated soybean protein [24]: not detected
- Decomposition efficiency of genistin family in defatted soybean [24]: 43.4%
- Decomposition efficiency of genistin family in concentrated soybean protein [25]: not detected
- Decomposition efficiency of genistin family in defatted soybean [25]: 47.8%
- Decomposition efficiency of genistin family in roasted soy flour [26]: not detected
- Decomposition efficiency of genistin family in soymilk [26]: 59.1%
- Decomposition efficiency of genistin family in roasted soy flour [27]: not detected
- Decomposition efficiency of genistin family in soymilk [27]: 46.9%
- Decomposition efficiency of genistin family in roasted soy flour [28]: not detected
- Decomposition efficiency of genistin family in soymilk [28]: 32.5%
- Decomposition efficiency of genistin family in roasted soy flour [29]: not detected
- Decomposition efficiency of genistin family in soymilk [29]: 20.4%
- Decomposition efficiency of genistin family in roasted soy flour [30]: not detected
- Decomposition efficiency of genistin family in soymilk [30]: 53.3%
- Decomposition efficiency of genistin family in concentrated soybean protein [31]: not detected
- Decomposition efficiency of genistin family in defatted soybean [31]: 47.0%
- Decomposition efficiency of genistin family in concentrated soybean protein [32]: not detected
- Decomposition efficiency of genistin family in defatted soybean [32]: 48.9%
- Decomposition efficiency of genistin family in concentrated soybean protein [33]: not detected
- Decomposition efficiency of genistin family in defatted soybean [33]: 45.2%
- Decomposition efficiency of genistin family in concentrated soybean protein [34]: not detected
- Decomposition efficiency of genistin family in defatted soybean [34]: 41.1%
- Decomposition efficiency of genistin family in concentrated soybean protein [35]: not detected
- Decomposition efficiency of genistin family in defatted soybean [35]: 39.7%
- Decomposition efficiency of genistin family in roasted soy flour [36]: not detected
- Decomposition efficiency of genistin family in soymilk [36]: 58.5%
- Decomposition efficiency of genistin family in roasted soy flour [37]: not detected
- Decomposition efficiency of genistin family in soymilk [37]: 48.9%
- Decomposition efficiency of genistin family in roasted soy flour [38]: not detected
- Decomposition efficiency of genistin family in soymilk [38]: 40.6%
- Decomposition efficiency of genistin family in roasted soy flour [39]: not detected
- Decomposition efficiency of genistin family in soymilk [39]: 31.8%
- Decomposition efficiency of genistin family in roasted soy flour [40]: not detected
- Decomposition efficiency of genistin family in soymilk [40]: 44.6%
- Decomposition efficiency of genistin family in concentrated soybean protein [41]: not detected
- Decomposition efficiency of genistin family in defatted soybean [41]: 47.0%
- Decomposition efficiency of genistin family in concentrated soybean protein [42]: not detected
- Decomposition efficiency of genistin family in defatted soybean [42]: 43.8%
- Decomposition efficiency of genistin family in concentrated soybean protein [43]: not detected
- Decomposition efficiency of genistin family in defatted soybean [43]: 32.5%
- Decomposition efficiency of genistin family in concentrated soybean protein [44]: not detected
- Decomposition efficiency of genistin family in defatted soybean [44]: 20.9%
- Decomposition efficiency of genistin family in concentrated soybean protein [45]: not detected
- Decomposition efficiency of genistin family in defatted soybean [45]: 20.1%
- Decomposition efficiency of genistin family in roasted soy flour [46]: not detected
- Decomposition efficiency of genistin family in soymilk [46]: 57.8%
- Decomposition efficiency of genistin family in roasted soy flour [47]: not detected
- Decomposition efficiency of genistin family in soymilk [47]: 50.4%
- Decomposition efficiency of genistin family in roasted soy flour [48]: not detected
- Decomposition efficiency of genistin family in soymilk [48]: 37.7%
- Decomposition efficiency of genistin family in roasted soy flour [49]: not detected
- Decomposition efficiency of genistin family in soymilk [49]: 24.1%
- Decomposition efficiency of genistin family in roasted soy flour [50]: not detected
- Decomposition efficiency of genistin family in soymilk [50]: 22.9%

SMILES: O=c1c(-c2ccc(O)cc2)coc2cc(O)cc(O)c12 [genistein]
- Decomposition efficiency of genistin family in defatted soybean [2]: 47.4%
- Decomposition efficiency of genistin family in defatted soybean [3]: 50.2%
- Decomposition efficiency of genistin family in defatted soybean [4]: 46.6%
- Decomposition efficiency of genistin family in defatted soybean [5]: 50.2%
- Decomposition efficiency of genistin family in defatted soybean [11]: 14.5%
- Decomposition efficiency of genistin family in defatted soybean [12]: 49.2%
- Decomposition efficiency of genistin family in defatted soybean [13]: 51.8%
- Decomposition efficiency of genistin family in defatted soybean [14]: 54.6%
- Decomposition efficiency of genistin family in defatted soybean [15]: 50.4%
- Decomposition efficiency of genistin family in defatted soybean [22]: 50.5%
- Decomposition efficiency of genistin family in defatted soybean [23]: 53.7%
- Decomposition efficiency of genistin family in defatted soybean [24]: 56.5%
- Decomposition efficiency of genistin family in defatted soybean [25]: 51.9%
- Decomposition efficiency of genistin family in defatted soybean [31]: 14.5%
- Decomposition efficiency of genistin family in defatted soybean [32]: 49.9%
- Decomposition efficiency of genistin family in defatted soybean [33]: 51.8%
- Decomposition efficiency of genistin family in defatted soybean [34]: 54.5%
- Decomposition efficiency of genistin family in defatted soybean [35]: 30.7%
- Decomposition efficiency of genistin family in defatted soybean [41]: 14.5%
- Decomposition efficiency of genistin family in defatted soybean [42]: 44.9%
- Decomposition efficiency of genistin family in defatted soybean [43]: 43.3%
- Decomposition efficiency of genistin family in defatted soybean [44]: 41.3%
- Decomposition efficiency of genistin family in defatted soybean [45]: 19.6%
- maximum isolation of aglycons (concentrated soybean protein): about 61%
- maximum isolation of aglycons (defatted soybean): about 57%
- maximum isolation of aglycons (soy flour): about 74%
- maximum isolation of aglycons (soymilk): about 80%
